# Assay results as given in patent publication US20190369107A1, “ZWITTERIONIC NANOPARTICLES” (priority 2017, published 2019).
# “Also recorded” adds a separate entry of the source.
# Test system: A549 cells
# Test: Toxicity tests of QDQRs on A549 cells (Cellomics Array Scan, Hoechst 33342 / MitoTracker Deep Red)
# Assay type: cell-based, human
# Conditions: 16 h incubation
# Procedure: The culture medium consisted of 10% FCS in DMEM with 1% PenStrep and sodium pyruvate in each case. The incubation of the cells always took place at 37° C. and a CO2 content of 5%.
# The zwitterionic Quantum Dots/Quantum Rods (QDQRs) nanoparticles were examined in various in vitro experiments with regard to their toxicity and non-specific cell uptake. Yellow-emitting QDQRs comprising the short- and long-chain zwitterionic ligand (QDQRs-17a and QDQRs-17b) were used for the studies to investigate a possible influence of the chain length of the ligand on the interactions of the QDQRs with cells. A549 cells were used for both toxicity and cell uptake studies. A549 cells are human basal epithelial cells derived from an adenocarcinoma of the lung which have been cultured as a cell line.
# The toxicity of the zwitterionic QDQRs-17a and QDQRs-17b was tested using the Cellomics Array Scan. For the toxicity tests, A549 cells were plated on a 96-well plate and incubated with QDQR solutions in a concentration range of 25 to 500 nM. Cadmium chloride, which was used in a concentration range from 25 to 1,000 μM, was used as the positive control. The increase in the cadmium chloride concentration by a factor of 1,000 is due to the fact that a single QDQR of the tested samples contains about 8,200 cadmium atoms. Assuming that the totality of the nanoparticles dissolve and release the cadmium contained in them, the lowest concentration of 25 nM QDQRs used would correspond to a concentration of 205 μM cadmium chloride. After an incubation period of 16 hours, the cells were blended with a staining solution consisting of the cell nucleus dye Hoechst 33342 and the mitochondrial dye MitoTracker® Deep Red FM and then fixed with formaldehyde solution. The 96-well plates were then read out with the Cellomics Array Scan. A software was used to automatically determine the parameters number of cells, cell nucleus intensity and cell nucleus size using the intensity of the dye by Hoechst, and the transmembrane potential of the mitochondria on the basis of the mitochondrial dye. In addition, microscopic images of the cells were taken to control the number of cells and cell morphology.
# For the toxicity tests, A549 cells were plated in culture medium on a 96-well plate (10,000 cells per well) and incubated overnight. When the medium had been sucked off, the samples to be tested (diluted with culture medium, 100 μL per well) were applied in different concentrations and incubated for 16 hours. The samples were then removed and the cells were mixed with 100 μL staining solution (final concentration: 75 nM MitoTracker® Deep Red and 2.5 μg/ml Hoechst 33342 in DMEM with 10% FCS) and incubated for a further 30 minutes. To fix the cells, the staining solution was removed and 100 μL of a warm fixing solution (3.7% formaldehyde in Dulbecco's PBS, DPBS) were added. After 20 minutes, the fixing solution was sucked off and washed twice with DPBS before the samples were measured on the Cellomics Array Scan.
compound,measurement,setting,value
[Cl][Cd][Cl] [cadmium chloride],morphological changes of the cells or cell nuclei in microscopic images,cadmium chloride at 100 μM or more,get globular
same,number of cells per well,"over the tested concentration range, FIG. 1 A",decreases significantly; also recorded: decreases noticeably
same,cell nucleus intensity (Hoechst 33342),"over the tested concentration range, FIG. 1 B",decreases significantly
same,cell nucleus size,"over the tested concentration range, FIG. 1 C",decreases significantly
same,transmembrane potential of the mitochondria,"over the tested concentration range, FIG. 1 D",first increases in the concentration range from 50 to 100 μM and then decreases again
same,concentration at which a toxic effect on the cells is shown,"positive control tested 25 to 1,000 μM",≥ 100 µM
